Assays:
Assay type in all cases: binding, Mycobacterium tuberculosis
Rv3066 mutant W80A = system: Rv3066 mutant W80A
Rv3066 mutant N112A = system: Rv3066 mutant N112A
Rv3066 mutant W131A = system: Rv3066 mutant W131A

CC[n+]1c(-c2ccccc2)c2cc(N)ccc2c2ccc(N)cc21 [ethidium, ethidium bromide]
three to four times: Decrease of affinity for ethidium binding, W80A versus wild-type (Rv3066 mutant W80A) | Decrease of affinity for ethidium binding, N112A versus wild-type (Rv3066 mutant N112A) | Decrease of affinity for ethidium binding, W131A versus wild-type (Rv3066 mutant W131A)
